According to article PMC10412597, “Small molecule branched-chain ketoacid dehydrogenase kinase (BDK) inhibitors with opposing effects on BDK protein levels” (Nature Communications, 2023):

Assays:
Histamine H3 = molecular target: T1, Histamine H3 (Homo sapiens, UniProt Q9Y5N1); design: Cerep Bioprint off-target panel, functional receptor agonism or antagonism; conditions: agonist
T1 construct: gene HRH3
Method: (§1) To discover a potent and selective BDK inhibitor, a subset of the Pfizer compound collection was screened. […] Off target activity was assessed in both CEREP and kinase panels (Supplementary Tables 2, 3).

[1] = molecular target: T2, Adrenergic Beta 2 Adrenoceptor (Homo sapiens, UniProt P07550); design: Cerep Bioprint off-target panel, functional receptor agonism or antagonism
T2 construct: gene ADRB2
T2 sequence (P07550 whole entry): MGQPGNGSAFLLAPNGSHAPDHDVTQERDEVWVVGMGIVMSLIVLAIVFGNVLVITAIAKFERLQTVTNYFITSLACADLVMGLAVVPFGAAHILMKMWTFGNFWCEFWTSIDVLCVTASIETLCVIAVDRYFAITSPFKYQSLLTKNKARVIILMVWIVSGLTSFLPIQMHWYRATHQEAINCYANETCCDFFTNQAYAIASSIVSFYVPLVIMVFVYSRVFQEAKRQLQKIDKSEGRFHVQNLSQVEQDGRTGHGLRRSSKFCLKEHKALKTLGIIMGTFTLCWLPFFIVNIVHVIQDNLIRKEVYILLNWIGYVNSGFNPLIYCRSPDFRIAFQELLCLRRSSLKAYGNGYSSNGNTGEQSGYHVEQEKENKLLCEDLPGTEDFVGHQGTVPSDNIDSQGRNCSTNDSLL
Method: as §1

[2] = molecular target: T3, Adrenergic Beta 1 Adrenoceptor (Homo sapiens, UniProt P08588); design: Cerep Bioprint off-target panel, functional receptor agonism or antagonism
T3 construct: gene ADRB1
T3 sequence (P08588 whole entry): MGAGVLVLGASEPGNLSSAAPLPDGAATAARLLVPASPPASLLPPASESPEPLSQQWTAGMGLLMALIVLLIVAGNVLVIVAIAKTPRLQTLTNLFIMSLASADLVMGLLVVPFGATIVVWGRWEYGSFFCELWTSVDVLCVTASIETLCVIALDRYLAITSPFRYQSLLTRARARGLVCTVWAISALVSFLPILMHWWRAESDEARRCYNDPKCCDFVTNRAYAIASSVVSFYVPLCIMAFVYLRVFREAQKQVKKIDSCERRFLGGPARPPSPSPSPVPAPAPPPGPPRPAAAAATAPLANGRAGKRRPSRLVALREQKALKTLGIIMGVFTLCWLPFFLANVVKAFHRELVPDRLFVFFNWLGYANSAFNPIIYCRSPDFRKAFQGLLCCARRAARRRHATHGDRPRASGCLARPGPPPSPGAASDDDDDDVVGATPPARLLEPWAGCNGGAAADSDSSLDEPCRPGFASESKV
Method: as §1

Muscarinic 2 = molecular target: T4, Muscarinic 2 (Homo sapiens, UniProt P08172); design: Cerep Bioprint off-target panel, functional receptor agonism or antagonism
T4 construct: gene CHRM2
T4 sequence (P08172 1-466): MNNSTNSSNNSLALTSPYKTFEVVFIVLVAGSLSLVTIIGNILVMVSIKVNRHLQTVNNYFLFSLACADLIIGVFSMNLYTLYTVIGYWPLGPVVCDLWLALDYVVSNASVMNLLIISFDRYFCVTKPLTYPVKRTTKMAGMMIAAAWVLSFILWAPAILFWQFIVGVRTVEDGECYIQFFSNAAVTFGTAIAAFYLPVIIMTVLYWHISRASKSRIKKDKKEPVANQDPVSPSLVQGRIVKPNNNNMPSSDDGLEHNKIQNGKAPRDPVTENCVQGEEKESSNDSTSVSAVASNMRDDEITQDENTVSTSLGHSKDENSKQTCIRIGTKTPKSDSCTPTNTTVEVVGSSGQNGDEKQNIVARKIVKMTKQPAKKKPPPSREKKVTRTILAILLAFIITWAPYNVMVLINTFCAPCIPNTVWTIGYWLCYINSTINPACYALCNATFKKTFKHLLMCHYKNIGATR
Method: as §1

EGFR Kinase = molecular target: T5, EGFR Kinase (Homo sapiens, UniProt P00533); design: Cerep Bioprint off-target panel, enzyme or kinase inhibition; conditions: inhibitor
T5 construct: kinase
Method: as §1

SRC = SRC (Homo sapiens, UniProt P12931); design: Cerep Bioprint off-target panel, enzyme or kinase inhibition; conditions: inhibitor
Method: as §1

Abl Kinase = molecular target: T6, Abl Kinase (Homo sapiens, UniProt P00519); design: Cerep Bioprint off-target panel, enzyme or kinase inhibition; conditions: inhibitor
T6 construct: gene ABL1
Method: as §1

Aurora A Kinase = molecular target: T7, Aurora A Kinase (Homo sapiens, UniProt O14965); design: Cerep Bioprint off-target panel, enzyme or kinase inhibition; conditions: inhibitor
T7 construct: gene AURKA
T7 sequence (O14965 whole entry): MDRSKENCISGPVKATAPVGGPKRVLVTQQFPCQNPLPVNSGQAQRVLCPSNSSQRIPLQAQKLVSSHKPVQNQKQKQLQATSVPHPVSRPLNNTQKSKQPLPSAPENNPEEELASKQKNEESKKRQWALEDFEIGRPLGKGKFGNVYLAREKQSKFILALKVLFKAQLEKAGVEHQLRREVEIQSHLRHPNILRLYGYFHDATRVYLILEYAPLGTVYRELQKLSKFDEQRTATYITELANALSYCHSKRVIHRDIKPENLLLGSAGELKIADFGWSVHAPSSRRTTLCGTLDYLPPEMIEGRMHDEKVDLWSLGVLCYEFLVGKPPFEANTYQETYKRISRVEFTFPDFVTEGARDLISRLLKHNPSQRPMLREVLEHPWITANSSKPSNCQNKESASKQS
Method: as §1

Phosphodiesterase 3B = molecular target: T8, Phosphodiesterase 3B (Homo sapiens, UniProt Q13370); design: Cerep Bioprint off-target panel, enzyme or kinase inhibition; conditions: inhibitor
T8 construct: gene PDE3B
Method: as §1

Acetylcholinesterase = molecular target: T9, Acetylcholinesterase (Homo sapiens, UniProt P22303); design: Cerep Bioprint off-target panel, enzyme or kinase inhibition; conditions: inhibitor
T9 construct: gene ACHE
Method: as §1

P38alpha MAP Kinase = molecular target: T10, P38alpha MAP Kinase (Homo sapiens, UniProt Q16539); design: Cerep Bioprint off-target panel, enzyme or kinase inhibition; conditions: inhibitor
T10 construct: gene MAPK14
T10 sequence (Q16539 whole entry): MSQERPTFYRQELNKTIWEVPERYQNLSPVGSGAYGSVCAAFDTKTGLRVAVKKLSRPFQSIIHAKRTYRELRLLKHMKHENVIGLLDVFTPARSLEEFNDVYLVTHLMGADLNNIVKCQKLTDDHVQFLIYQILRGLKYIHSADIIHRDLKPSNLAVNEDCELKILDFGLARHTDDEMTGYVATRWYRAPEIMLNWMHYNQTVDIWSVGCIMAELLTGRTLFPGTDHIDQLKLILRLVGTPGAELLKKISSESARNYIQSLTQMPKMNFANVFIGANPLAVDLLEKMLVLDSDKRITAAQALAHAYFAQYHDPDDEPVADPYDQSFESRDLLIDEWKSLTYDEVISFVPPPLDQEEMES
Method: as §1

Monoamine Oxidase A = molecular target: T11, Monoamine Oxidase A (Homo sapiens, UniProt P21397); design: Cerep Bioprint off-target panel, enzyme or kinase inhibition; conditions: inhibitor
T11 construct: gene MAOA
T11 sequence (P21397 whole entry): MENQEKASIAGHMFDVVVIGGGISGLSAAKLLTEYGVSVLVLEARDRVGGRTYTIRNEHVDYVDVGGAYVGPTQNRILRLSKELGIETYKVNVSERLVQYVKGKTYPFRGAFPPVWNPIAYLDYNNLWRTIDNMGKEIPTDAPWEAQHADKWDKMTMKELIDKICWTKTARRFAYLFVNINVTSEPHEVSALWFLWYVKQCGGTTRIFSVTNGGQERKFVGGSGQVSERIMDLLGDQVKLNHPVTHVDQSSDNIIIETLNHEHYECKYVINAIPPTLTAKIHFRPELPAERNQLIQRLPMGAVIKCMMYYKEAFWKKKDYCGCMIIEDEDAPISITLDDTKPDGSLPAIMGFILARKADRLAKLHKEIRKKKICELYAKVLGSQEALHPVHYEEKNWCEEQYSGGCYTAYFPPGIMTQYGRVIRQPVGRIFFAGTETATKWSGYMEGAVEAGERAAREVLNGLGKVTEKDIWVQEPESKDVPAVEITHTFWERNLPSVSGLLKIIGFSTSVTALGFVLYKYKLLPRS
Method: as §1

[3] = molecular target: T12, Dual-specificity tyrosine-(Y)-phosphorylation regulated kinase 2 (DYRK) (Homo sapiens, UniProt Q92630); design: Invitrogen Lantha screen kinase binding, per cent inhibition of binding; conditions: 10 µM, binder
T12 construct: gene DYRK2
T12 sequence (Q92630 whole entry): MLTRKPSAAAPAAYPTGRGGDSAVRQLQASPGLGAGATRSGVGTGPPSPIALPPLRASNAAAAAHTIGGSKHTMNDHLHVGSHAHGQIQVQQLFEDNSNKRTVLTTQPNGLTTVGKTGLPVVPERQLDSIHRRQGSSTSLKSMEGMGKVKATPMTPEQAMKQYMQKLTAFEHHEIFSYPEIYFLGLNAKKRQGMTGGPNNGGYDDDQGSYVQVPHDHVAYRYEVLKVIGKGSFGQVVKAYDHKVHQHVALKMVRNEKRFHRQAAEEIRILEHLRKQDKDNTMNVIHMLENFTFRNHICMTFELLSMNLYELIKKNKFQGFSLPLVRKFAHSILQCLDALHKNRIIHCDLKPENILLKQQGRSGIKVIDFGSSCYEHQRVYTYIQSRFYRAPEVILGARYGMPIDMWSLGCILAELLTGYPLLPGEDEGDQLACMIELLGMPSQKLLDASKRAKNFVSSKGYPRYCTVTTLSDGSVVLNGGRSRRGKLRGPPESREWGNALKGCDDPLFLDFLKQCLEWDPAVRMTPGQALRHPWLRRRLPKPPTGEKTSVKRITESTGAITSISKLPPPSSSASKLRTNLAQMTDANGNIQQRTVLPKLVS
Method: as §1

TGFBR2 = TGFBR2 (Homo sapiens, UniProt P37173); design: Invitrogen Lantha screen kinase binding, per cent inhibition of binding; conditions: 10 µM, binder
Sequence of TGFBR2 (P37173 whole entry): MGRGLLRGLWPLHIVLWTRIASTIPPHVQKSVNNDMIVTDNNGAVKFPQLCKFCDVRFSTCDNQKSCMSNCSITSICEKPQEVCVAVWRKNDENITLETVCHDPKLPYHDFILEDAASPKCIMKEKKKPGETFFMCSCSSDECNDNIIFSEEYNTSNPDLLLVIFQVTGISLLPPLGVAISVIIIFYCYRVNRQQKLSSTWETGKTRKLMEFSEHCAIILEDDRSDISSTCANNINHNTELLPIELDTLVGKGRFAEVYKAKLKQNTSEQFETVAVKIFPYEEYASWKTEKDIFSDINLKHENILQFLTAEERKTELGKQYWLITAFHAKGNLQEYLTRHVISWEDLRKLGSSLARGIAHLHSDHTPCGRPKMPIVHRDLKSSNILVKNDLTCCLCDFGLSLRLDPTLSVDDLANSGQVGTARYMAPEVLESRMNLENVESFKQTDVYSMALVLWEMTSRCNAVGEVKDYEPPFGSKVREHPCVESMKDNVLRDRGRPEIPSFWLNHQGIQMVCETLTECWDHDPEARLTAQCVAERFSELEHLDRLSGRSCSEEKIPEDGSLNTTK
Method: as §1

MAPK15 = MAPK15 (Homo sapiens, UniProt Q8TD08); design: Invitrogen Lantha screen kinase binding, per cent inhibition of binding; conditions: 10 µM, binder
Method: as §1

CAMKK2 = CAMKK2 (Homo sapiens, UniProt Q96RR4); design: Invitrogen Lantha screen kinase binding, per cent inhibition of binding; conditions: 10 µM, binder
Sequence of CAMKK2 (Q96RR4 whole entry): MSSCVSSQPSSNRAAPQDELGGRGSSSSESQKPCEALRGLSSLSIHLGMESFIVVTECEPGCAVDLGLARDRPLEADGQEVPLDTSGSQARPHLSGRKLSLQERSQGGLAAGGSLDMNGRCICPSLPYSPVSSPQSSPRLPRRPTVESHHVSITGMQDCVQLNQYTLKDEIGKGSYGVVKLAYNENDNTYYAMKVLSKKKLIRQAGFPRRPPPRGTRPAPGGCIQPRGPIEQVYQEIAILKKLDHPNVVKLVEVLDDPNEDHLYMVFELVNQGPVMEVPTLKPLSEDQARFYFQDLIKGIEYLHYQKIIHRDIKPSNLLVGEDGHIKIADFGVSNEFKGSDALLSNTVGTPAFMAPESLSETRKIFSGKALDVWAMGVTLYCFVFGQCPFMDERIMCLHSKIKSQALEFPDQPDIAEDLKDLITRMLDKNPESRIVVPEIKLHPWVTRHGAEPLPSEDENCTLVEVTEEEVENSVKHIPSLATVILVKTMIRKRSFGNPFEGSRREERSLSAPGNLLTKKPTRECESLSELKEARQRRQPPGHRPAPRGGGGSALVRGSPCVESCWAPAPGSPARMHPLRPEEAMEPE
Method: as §1

MAP3K11 = MAP3K11 (Homo sapiens, UniProt Q16584); design: Invitrogen Lantha screen kinase binding, per cent inhibition of binding; conditions: 10 µM, binder
Method: as §1

MKNK2 = MKNK2 (Homo sapiens, UniProt Q9HBH9); design: Invitrogen Lantha screen kinase binding, per cent inhibition of binding; conditions: 10 µM, binder
Method: as §1

TTK = TTK (Homo sapiens, UniProt P33981); design: Invitrogen Lantha screen kinase binding, per cent inhibition of binding; conditions: 10 µM, binder
Method: as §1

MYLK = MYLK (Homo sapiens, UniProt Q15746); design: Invitrogen Lantha screen kinase binding, per cent inhibition of binding; conditions: 10 µM, binder
Method: as §1

[4] = molecular target: T13, Protein kinase, AMP-activated, alpha 1 beta 1 gamma 2 complex (Homo sapiens, UniProt Q13131+Q9UGJ0+Q9Y478); design: Invitrogen Lantha screen kinase binding, per cent inhibition of binding; conditions: 10 µM, binder
T13 construct: gene PRKAA1
Method: as §1

[5] = molecular target: TGF-beta activated kinase 1/MAP3K7 binding protein 1 (MAP3K7IP1) (Homo sapiens, UniProt O43318); design: Invitrogen Lantha screen kinase binding, per cent inhibition of binding; conditions: 10 µM, binder
Method: as §1

PKN2 = PKN2 (Homo sapiens, UniProt Q16513); design: Invitrogen Lantha screen kinase binding, per cent inhibition of binding; conditions: 10 µM, binder
Sequence of PKN2 (Q16513 whole entry): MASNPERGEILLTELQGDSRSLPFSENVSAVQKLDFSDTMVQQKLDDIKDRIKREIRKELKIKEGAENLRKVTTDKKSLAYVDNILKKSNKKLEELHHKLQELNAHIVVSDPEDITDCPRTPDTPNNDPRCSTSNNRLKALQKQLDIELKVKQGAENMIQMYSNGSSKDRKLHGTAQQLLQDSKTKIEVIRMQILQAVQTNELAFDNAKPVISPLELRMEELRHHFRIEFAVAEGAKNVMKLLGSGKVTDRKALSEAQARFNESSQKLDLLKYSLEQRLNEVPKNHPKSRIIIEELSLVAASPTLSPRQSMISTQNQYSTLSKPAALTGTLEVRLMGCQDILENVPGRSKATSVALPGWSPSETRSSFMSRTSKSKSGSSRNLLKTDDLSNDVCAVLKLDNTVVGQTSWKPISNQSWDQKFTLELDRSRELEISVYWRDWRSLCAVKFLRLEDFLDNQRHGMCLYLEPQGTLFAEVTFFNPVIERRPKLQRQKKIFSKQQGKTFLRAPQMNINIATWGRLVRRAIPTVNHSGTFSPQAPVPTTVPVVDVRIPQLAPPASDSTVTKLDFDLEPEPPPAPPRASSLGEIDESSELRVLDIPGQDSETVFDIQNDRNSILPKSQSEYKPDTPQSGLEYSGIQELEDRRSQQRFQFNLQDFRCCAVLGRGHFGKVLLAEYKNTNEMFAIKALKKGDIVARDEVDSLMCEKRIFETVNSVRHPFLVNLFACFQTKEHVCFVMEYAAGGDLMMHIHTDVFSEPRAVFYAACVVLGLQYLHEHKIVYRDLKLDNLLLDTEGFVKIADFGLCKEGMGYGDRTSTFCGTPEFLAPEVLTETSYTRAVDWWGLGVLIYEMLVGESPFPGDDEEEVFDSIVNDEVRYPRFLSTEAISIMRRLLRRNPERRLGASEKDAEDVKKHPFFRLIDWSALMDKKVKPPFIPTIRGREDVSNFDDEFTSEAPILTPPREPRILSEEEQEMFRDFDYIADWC
Method: as §1

For CCC1(COc2ccc(-c3csc(-c4ccccc4C(=O)O)n3)cn2)CC1 [PF-07247685, 2-(4-{6-[(1-ethylcyclopropyl)methoxy]pyridin-3-yl}-1,3-thiazol-2-yl)benzoic acid], the “% (agonism) PF-07247685” value (Histamine H3; 10 µM) was 4%, the “% (agonism) PF-07247685” value ([1]; 10 µM, agonist) was -6% and the “% Inhibition (antagonism) PF-07247685” value ([1]; 10 µM, antagonist) was 3%. The “% (agonism) PF-07247685” value ([2]; 10 µM, agonist) was 6%, the “% Inhibition (antagonism) PF-07247685” value ([2]; 10 µM, antagonist) was 27% and the “% (agonism) PF-07247685” value (Muscarinic 2; 10 µM, agonist) was 3%. For the same molecule, the “% Inhibition (antagonism) PF-07247685” value (Muscarinic 2; 10 µM, antagonist) was 2%, the “% Inhibition PF-07247685” value (EGFR Kinase; 10 µM) was -6% and the “% Inhibition PF-07247685” value (SRC; 10 µM) was -8%. For the same molecule, the “% Inhibition PF-07247685” value (Abl Kinase; 10 µM) was 11%, the “% Inhibition PF-07247685” value (Aurora A Kinase; 10 µM) was -7% and the “% Inhibition PF-07247685” value (Phosphodiesterase 3B; 10 µM) was -16%. For the same molecule, the “% Inhibition PF-07247685” value (Acetylcholinesterase; 10 µM) was -4%, the “% Inhibition PF-07247685” value (P38alpha MAP Kinase; 10 µM) was 3% and the “% Inhibition PF-07247685” value (Monoamine Oxidase A; 10 µM) was 12%. For the same molecule, the “Lantha Binding % Inhibition PF-07247685” value [3] was 1.9%, the “Lantha Binding % Inhibition PF-07247685” value (TGFBR2) was 15.1% and the “Lantha Binding % Inhibition PF-07247685” value (MAPK15) was 2.4%. For the same molecule, the “Lantha Binding % Inhibition PF-07247685” value (CAMKK2) was 1.8%, the “Lantha Binding % Inhibition PF-07247685” value (MAP3K11) was -2.2% and the “Lantha Binding % Inhibition PF-07247685” value (MKNK2) was 1.2%. For the same molecule, the “Lantha Binding % Inhibition PF-07247685” value (TTK) was 3.6%, the “Lantha Binding % Inhibition PF-07247685” value (MYLK) was 1.3% and the “Lantha Binding % Inhibition PF-07247685” value [4] was 0.5%. For the same molecule, the “Lantha Binding % Inhibition PF-07247685” value [5] was -1.9% and the “Lantha Binding % Inhibition PF-07247685” value (PKN2) was -1.7%.
For O=C(O)c1sc2cc(F)sc2c1Cl [PF-07208254, 3-chloro-5-fluorothieno[3,2-b]thiophene-2-carboxylic acid], the “% (agonism) PF-07208254” value (Histamine H3; 100 µM) was 15%, the “% (agonism) PF-07208254” value ([1]; 100 µM, agonist) was -5% and the “% Inhibition (antagonism) PF-07208254” value ([1]; 100 µM, antagonist) was 10%. The “% (agonism) PF-07208254” value ([2]; 100 µM, agonist) was 2%, the “% Inhibition (antagonism) PF-07208254” value ([2]; 100 µM, antagonist) was 8% and the “% (agonism) PF-07208254” value (Muscarinic 2; 100 µM, agonist) was 39%. For the same molecule, the “% Inhibition (antagonism) PF-07208254” value (Muscarinic 2; 100 µM, antagonist) was -7%, the “% Inhibition PF-07208254” value (EGFR Kinase; 100 µM) was 19% and the “% Inhibition PF-07208254” value (SRC; 100 µM) was 11%. For the same molecule, the “% Inhibition PF-07208254” value (Abl Kinase; 100 µM) was 42%, the “% Inhibition PF-07208254” value (Aurora A Kinase; 100 µM) was 15% and the “% Inhibition PF-07208254” value (Phosphodiesterase 3B; 100 µM) was -9%. The “% Inhibition PF-07208254” value (Acetylcholinesterase; 100 µM) was -4%, the “% Inhibition PF-07208254” value (P38alpha MAP Kinase; 100 µM) was 35% and the “% Inhibition PF-07208254” value (Monoamine Oxidase A; 100 µM) was 0%. The “Lantha Binding % Inhibition PF-07208254” value [3] was 29.2%, the “Lantha Binding % Inhibition PF-07208254” value (TGFBR2) was 15.9% and the “Lantha Binding % Inhibition PF-07208254” value (MAPK15) was 18.3%. For the same molecule, the “Lantha Binding % Inhibition PF-07208254” value (CAMKK2) was 7.8%, the “Lantha Binding % Inhibition PF-07208254” value (MAP3K11) was 6.8% and the “Lantha Binding % Inhibition PF-07208254” value (MKNK2) was 11.8%. The “Lantha Binding % Inhibition PF-07208254” value (TTK) was 16.2%, the “Lantha Binding % Inhibition PF-07208254” value (MYLK) was 3.3% and the “Lantha Binding % Inhibition PF-07208254” value [4] was 5.9%. For the same molecule, the “Lantha Binding % Inhibition PF-07208254” value [5] was 2.6% and the “Lantha Binding % Inhibition PF-07208254” value (PKN2) was 8.1%.
